According to US6211439A, “Herbicide resistance in plants” (MGI Pharma, Inc, priority 1995, dated 2001):
Converted amounts (≈) assume the structure as drawn. Read-outs that look alike come from different tables or passages of the source.

How the values were obtained:
[1] = test system: acetohydroxyacid synthase (AHAS); assay: AHAS activity assay, extract of maize cell cultures / control tissue; type: biochemical
Description: Plant cell culture material was ground with sand in a cold mortar and pestle in an equal quantity (w/v) of cell disruption media containing 0.05 M potassium phosphate (pH 7.0), 0.1 mM MgSO4, and 0.5 mM dithiothreitol. The preparation was centrifuged at 11,000×g for 20 minutes and the supernatant assayed for AHAS activity. Assays were conducted in 1 ml volumes containing 0.05 M potassium phosphate (pH 8.0), 40 mM pyruvate, 5 mM MgCl2, 0.1 mM thiamine pyrophosphate, 0.2 ml cell extract, and various concentrations of the herbicide of interest. The reaction mixtures were incubated at 30° C. for 75 minutes and the reaction terminated with the addition of 0.1 ml of 50% (v/v) H2 SO4. […] To 0.2 ml of reaction mixture, 0.8 ml of water, 0.5 ml of 0.5% (w/v) creatine, and 0.5 ml of 5% (w/v) naphthol in 10% (w/v) NaOH was added. After mixing, solutions were incubated at room temperature for one hour.

[2] = test system: Unselected culture tissue; assay: Herbicide inhibition of plant regeneration, unselected culture tissue; type: cell-based, maize
Description: (§1) Eighty to 90 mg quantities of maize callus tissue were transferred to embryo and shoot development (regeneration) media in petri plates. The media consisted of MS basal media supplemented with 0.1 mg per liter 2,4-D and 1×10^-7 M abscissic acid. 0.25% Gelrite (Kelco Co., San Diego, Calif.) was used as a solid support in place of agar. The tissue was incubated in the dark at 26° C. (approximately 300 footcandles,soft white fluorescent) on a cycle of 14 hours light, 10 hours dark. Developing plants reaching a size of 1-3 cm were then transferred to flasks or jars, containing MS media with no supplementation, for further development. When plants reached the two to three leaf stage, they were moved to pots containing vermiculite and exposed to light at 2600 footcandles. These plants were watered with 20% v/v MS media for one week and then with water until they grew stably. The plants were then transferred to soil for growth to maturity.
The effect of various concentrations of 214 on plant regeneration embryo and shoot development were evaluated. Unselected culture tissue was transferred to regeneration media containing various concentrations of 214 ranging from 0.01 to 0.3 mg per liter. The tissue was then put through the first three weeks of the plant regeneration protocol described supra. The culture was scored after this time for the production of well defined shoots.

line XA17 tissue = assay: Plant regeneration from line XA17 callus in presence of herbicide; type: cell-based, maize; conditions: 0.1, 0.3, and 3.0 mg per liter 214
Description: as §1
Traits which are selected for and expressed in undifferentiated cell cultures are not necessarily expressed in the differentiated organs and tissues of a developing plant. Therefore, it was necessary to examine plants regenerated from line XA17 callus tissue in the presence of normally inhibitory concentrations of 214. Line XA17 tissue was transferred to regeneration media containing 0.1, 0.3, and 3.0 mg per liter 214.

cell line XA119 = assay: Tolerance of cell line XA119 at the cellular level; type: cell-based, maize
[3] = test system: isozymes of AHAS (I, II and III); assay: E. coli AHAS isozymes assayed in vitro; type: biochemical; conditions: millimolar concentrations
Text: Genes encoding AHAS are common to the aspartate and branched chain amino acid pathways in plants and microorganisms (Umbarger, 1978, Ann. Rev. Biochem, 47: 533-606). AHAS catalyzes the first step in the synthesis of the amino acids leucine, valine and isoleucine. AHAS activity is regulated in vivo by various end products or combination of end products of the biosynthetic pathway. AHAS genes with a variety of regulatory characteristics are available from microorganisms including, but not limited to, Escherichia coli, yeast and Neurospora. These might include AHAS genes which are naturally resistant to the imidazolinone herbicides. […] Resistance of E. coli to AC 243,997 therefore appears to be the result of an insensitive site of action as opposed to being a result of metabolism of the herbicide. Resistance in other organisms is likely to be of the same nature, providing a variety of sources of a gene encoding an herbicide resistant AHAS. The genes encoding all three E. coli isozymes have been cloned and sequenced. Selection for imidazolinone resistant mutant AHAS genes in microorganisms or plants including plant tissue cultures would provide a diverse source of genes which, when transferred to plants, produce herbicide resistant plants.

[4] = test system: Black Mexican Sweet Corn tissue; assay: Free amino acid levels in Black Mexican Sweet Corn suspension cultures; type: cell-based, maize; conditions: for activity at 10 µM / fold induction at 10 µM: Zea mays; for activity at 10 µM: After 48 hours of herbicide exposure; for fold induction at 10 µM: over a period of 48 hours, vs control cultures
Description: Suspension culture cells were treated for 3.5 hours or 48 hours with 1×10^-5 M 997. Cells were removed from suspension by filtration and 1 gram fresh weight quantities were ground with sand with a mortar and pestle in 1 ml 5% TCA. Four ml of 5% TCA were added and the extract centrifuged at 10,000×g for 10 minutes. The pellet was reextracted and the supernatants combined and subjected to cation exchange chromatography. The samples were applied to Bond Elut SCX columns (Analytichem International Inc., Harbor City, Calif.) which had been equilibrated with 5% TCA. Following sample application, the columns were washed with 5 ml distilled, deionized water, and the amino acids were eluted with 2 ml aliquots of 5% v/v triethylamine. The aliquots were combined (6 ml), lyophilized, and subjected to amino acid analysis with a Kontron Liquemat III amino acid analyzer (Hesber, Middlesex TW5 OQU, England).

[5] = AHAS activity of control tissue, read-out: concentration inhibiting AHAS activity 50%
[6] = 1 × 10^-5 M 997, 3.5 hr., Estimated

Question: For `CC(C)C1(C)NC(c2nc3ccccc3cc2C(=O)O)=NC1=O` (stereo not drawn) [compound 214, 2-(5-isopropyl-5-methyl-4-oxo-2-imidazolin-2-yl)3-quinolinecarboxylic acid], which “effect on AHAS enzyme activity” value ([1]; AHAS activity from maize cell cultures) is on record?
Answer: Its value is “inhibited the enzyme activity”.

Question: And the IC50 [1, 5]?
Answer: The IC50 was 1 to 10 µM.

Question: What about the “somatic embryo development and shoot formation” value ([2]; 0.3 mg per liter 214) of the same compound?
Answer: Its value is “completely inhibited”.

Question: What about the IC50 ([2]; Zea mays, 504 h, based on the number of shoots formed, first three weeks of regeneration protocol, read-out: concentration inhibiting plant regeneration 50%) of the same compound?
Answer: The IC50 was 0.03 to 0.1 µg/mL (≈ 0.0964 to 0.321 µM).

Question: And the “plantlet development on regeneration media” value (line XA17 tissue)?
Answer: The value was “Normally developing plantlets were obtained at all three herbicide levels”.

Question: And the “enhancement of tolerance at the cellular level” value (cell line XA119)?
Answer: Its value is “approximately three fold”.

Question: For `CC(C)C1(C)NC(c2ncccc2C(=O)O)=NC1=O` (stereo not drawn) [compound 997, 2-(5-isopropyl-5-methyl-4-oxo-2-imidazolin-2-yl)nicotinic acid], which IC50 ([1]; AHAS activity from maize cell cultures, read-out: concentration reducing AHAS enzyme activity 50%) is on record?
Answer: Its IC50 is 8 µM.

Question: And the IC50 [1, 5]?
Answer: Its IC50 is 1 to 10 µM.

Question: And the “sensitivity of AHAS isozymes I, II and III” value [3]?
Answer: Its value is “insensitive to millimolar concentrations”.

Question: And the Free asp level ([4]; 1 × 10^-5 M 997, 3.5 hr.)?
Answer: Its Free asp level is 175 nmol per g fresh weight tissue.

Question: And the “Free cystine (Oxidized cysteine) level” value ([4]; 1 × 10^-5 M 997, 3.5 hr.)?
Answer: Its value is 103 nmol per g fresh weight tissue.

Question: And the Free glu level ([4]; 1 × 10^-5 M 997, 3.5 hr.)?
Answer: The Free glu level was 360 nmol per g fresh weight tissue.

Question: And the Free gly level ([4]; 1 × 10^-5 M 997, 3.5 hr.)?
Answer: The Free gly level was 98 nmol per g fresh weight tissue.

Question: What about the Free his level ([4]; 1 × 10^-5 M 997, 3.5 hr.) of the same compound?
Answer: The Free his level was 184 nmol per g fresh weight tissue.

Question: And the Free ile level ([4]; 1 × 10^-5 M 997, 3.5 hr.)?
Answer: The Free ile level was 120 nmol per g fresh weight tissue.

Question: What about the Free leu level ([4]; 1 × 10^-5 M 997, 3.5 hr.) of the same compound?
Answer: Its Free leu level is 120 nmol per g fresh weight tissue.

Question: And the Free lys level ([4]; 1 × 10^-5 M 997, 3.5 hr.)?
Answer: The Free lys level was 212 nmol per g fresh weight tissue.

Question: What about the Free met level ([4]; 1 × 10^-5 M 997, 3.5 hr.) of the same compound?
Answer: Its Free met level is 100 nmol per g fresh weight tissue.

Question: What about the Free phe level ([4]; 1 × 10^-5 M 997, 3.5 hr.) of the same compound?
Answer: Its Free phe level is 151 nmol per g fresh weight tissue.

Question: And the Free ser level ([4]; 1 × 10^-5 M 997, 3.5 hr.)?
Answer: Its Free ser level is 540 nmol per g fresh weight tissue.

Question: What about the Free thr level ([4]; 1 × 10^-5 M 997, 3.5 hr.) of the same compound?
Answer: Its Free thr level is 89 nmol per g fresh weight tissue.

Question: What about the Free tyr level ([4]; 1 × 10^-5 M 997, 3.5 hr.) of the same compound?
Answer: Its Free tyr level is 112 nmol per g fresh weight tissue.

Question: What about the Free val level ([4]; 1 × 10^-5 M 997, 3.5 hr.) of the same compound?
Answer: The Free val level was 355 nmol per g fresh weight tissue.

Question: What about the Free ala level [4, 6] of the same compound?
Answer: The Free ala level was 600 nmol per g fresh weight tissue.

Question: What about the Free arg level [4, 6] of the same compound?
Answer: The Free arg level was 60 nmol per g fresh weight tissue.

Question: What about the Free trp level [4, 6] of the same compound?
Answer: The Free trp level was 30 nmol per g fresh weight tissue.

Question: What about the Free ala level ([4]; 1 × 10^-5 M 997, 48 hr.) of the same compound?
Answer: Its Free ala level is 455 nmol per g fresh weight tissue.

Question: What about the Free arg level ([4]; 1 × 10^-5 M 997, 48 hr.) of the same compound?
Answer: The Free arg level was 55 nmol per g fresh weight tissue.

Question: And the Free asp level ([4]; 1 × 10^-5 M 997, 48 hr.)?
Answer: The Free asp level was 100 nmol per g fresh weight tissue.

Question: What about the “Free cystine (Oxidized cysteine) level” value ([4]; 1 × 10^-5 M 997, 48 hr.) of the same compound?
Answer: The value was 435 nmol per g fresh weight tissue.

Question: What about the Free glu level ([4]; 1 × 10^-5 M 997, 48 hr.) of the same compound?
Answer: The Free glu level was 175 nmol per g fresh weight tissue.

Question: What about the Free gly level ([4]; 1 × 10^-5 M 997, 48 hr.) of the same compound?
Answer: The Free gly level was 60 nmol per g fresh weight tissue.

Question: What about the Free his level ([4]; 1 × 10^-5 M 997, 48 hr.) of the same compound?
Answer: Its Free his level is 310 nmol per g fresh weight tissue.

Question: What about the Free ile level ([4]; 1 × 10^-5 M 997, 48 hr.) of the same compound?
Answer: Its Free ile level is 38 nmol per g fresh weight tissue.

Question: What about the Free leu level ([4]; 1 × 10^-5 M 997, 48 hr.) of the same compound?
Answer: Its Free leu level is 16 nmol per g fresh weight tissue.

Question: What about the Free lys level ([4]; 1 × 10^-5 M 997, 48 hr.) of the same compound?
Answer: Its Free lys level is 240 nmol per g fresh weight tissue.

Question: And the Free met level ([4]; 1 × 10^-5 M 997, 48 hr.)?
Answer: The Free met level was 405 nmol per g fresh weight tissue.

Question: What about the Free phe level ([4]; 1 × 10^-5 M 997, 48 hr.) of the same compound?
Answer: The Free phe level was 195 nmol per g fresh weight tissue.

Question: And the Free ser level ([4]; 1 × 10^-5 M 997, 48 hr.)?
Answer: Its Free ser level is 1160 nmol per g fresh weight tissue.

Question: And the Free trp level ([4]; 1 × 10^-5 M 997, 48 hr.)?
Answer: The Free trp level was 30 nmol per g fresh weight tissue.

Question: What about the Free tyr level ([4]; 1 × 10^-5 M 997, 48 hr.) of the same compound?
Answer: The Free tyr level was 130 nmol per g fresh weight tissue.

Question: What about the Free val level ([4]; 1 × 10^-5 M 997, 48 hr.) of the same compound?
Answer: The Free val level was 48 nmol per g fresh weight tissue.

Question: And the activity at 10 µM ([4]; read-out: free isoleucine level relative to untreated cell cultures)?
Answer: The activity at 10 µM was 31%.

Question: What about the activity at 10 µM ([4]; read-out: free leucine level relative to untreated cell cultures) of the same compound?
Answer: Its activity at 10 µM is 8%.

Question: What about the activity at 10 µM ([4]; read-out: free valine level relative to untreated cell cultures) of the same compound?
Answer: Its activity at 10 µM is 12%.

Question: What about the fold induction at 10 µM ([4]; read-out: increase of free cysteine during herbicide exposure) of the same compound?
Answer: The fold induction at 10 µM was 24.

Question: And the fold induction at 10 µM ([4]; read-out: increase of free methionine during herbicide exposure)?
Answer: Its fold induction at 10 µM is 8.

Question: And the fold induction at 10 µM ([4]; read-out: increase of free serine during herbicide exposure)?
Answer: The fold induction at 10 µM was 3.
